We go through seven substances from PMC4960549, “Structure-Activity Analysis of Gram-positive Bacterium-producing Lasso Peptides with Anti-mycobacterial Activity” (Scientific Reports, 2016).

Positions of bridges follow the written chain, without caps; N, C: chain ends. No end group written: not given here.

The test concerns M. smegmatis 607. Kind of test: Anti-mycobacterial activity by paper disk method. It is filed as cell-based, Mycobacterium smegmatis. To be noted: for Inhibition zone: paper disk (6 mm) containing 1 μg peptide on Middlebrook 7H9 agar spread with M. smegmatis 607 (approx. 1.5 × 10^8 CFU/ml), 37 °C, 48 hr, diameter of inhibitory zone, average from two independent experiments, '-' = no zone (activity lost); for Anti-mycobacterial activity compared with lariatin A (in words): M. smegmatis, paper disk method, 1 μg per disk. The protocol: To gain insights into the structure-activity relationships of lariatin A, anti-mycobacterial activity of 20 lariatin variants against M. smegmatis was evaluated by paper disk method (Fig. 4). Among lariatin variants related to the macrolactam ring, the anti-mycobacterial activity of Tyr6 variant only was lost, while the replacement of Tyr6 with tryptophan and phenylalanine didn’t affect the anti-mycobacterial activity. […] Furthermore, Gly11 and Asn14 were closely involved in the anti-mycobacterial activity because of the loss of the activity in their variants. […] Thus, it was shown that the positively charged amino acid residue was favorable at the residue at position 17. Also, it was shown that the amino acid residue without bulky or branched side chains at the residues at positions 15, 16 and 18 contributed to the higher potency.
Figure 4 Anti-mycobacterial activity of lariatin variants. Anti-mycobacterial activities of lariatin variants were evaluated by a paper disk method. Value of the inhibition zone against M. smegmatis and relative activity in comparison with lariatin A were shown here. Bar color represents potency of each compound when the value of inhibition zone of lariatin A is set up at 100%: yellow, <50% activity; green, 50–120% activity; blue, >120% activity. Value of inhibition zone represents the average from two independent experiments. TEXT PRINTED IN THE PICTURE: Lariatin A: Inhibition zone (mm): 21.8 | S2A: Inhibition zone (mm): 20.4 | Q3A: Inhibition zone (mm): 16.3 | L4A: Inhibition zone (mm): 8.9 | V5A: Inhibition zone (mm): 11.3 | Y6A: Inhibition zone (mm): - | V10A: Inhibition zone (mm): 7.6 | G11A: Inhibition zone (mm): - | H12A: Inhibition zone (mm): 12.7 | S13A: Inhibition zone (mm): 19.8 | N14A: Inhibition zone (mm): - | V15A: Inhibition zone (mm): 20.7 | I16A: Inhibition zone (mm): 24.0 | K17A: Inhibition zone (mm): 10.4 | P18A: Inhibition zone (mm): 29.6 | V15A/I16A: Inhibition zone (mm): 29.3 | Y6F: Inhibition zone (mm): 30.7 | Y6W: Inhibition zone (mm): 22.8 | R7K: Inhibition zone (mm): 26.5 | W9Y: Inhibition zone (mm): 14.9 | K17R: Inhibition zone (mm): 31.1
Antimicrobial activity of lariatins against M. smegmatis 607 was measured by a paper disk method. The cell suspension of M. smegmatis 607 was adjusted to approximately 1.5 × 10^8 CFU ml^−1 in a Middlebrook 7H9 broth (Difco, Becton Dickinson, Sparks, MD, USA) containing 0.05% Tween 80 and 10% ADC enrichment (5.0% bovine albumin fraction V, 2.0% dextrose and catalase (30 μg/ml)), and were spread on a Middlebrook 7H9 agar plate. A paper disk (6 ϕ mm, Advantec Toyo Kaisha, Ltd. Tokyo, Japan) containing 1 μg lariatin variants was placed on the agar plate and was incubated at 37 °C for 48 hr. A diameter (mm) of the inhibitory zone observed around the paper disk was measured to evaluate the anti-mycobacterial activity.

Consider “H12A: lariatin A variant, alanine substitution at position 12 (GSQLVYREWVGASNVIKP; lactam N-8 (inferred); not fully specified; ends not checked; UniProt H7C8I3 27-44, looked up, variant H12A)”, for which the Inhibition zone was found to be 12.7 mm. Consider “K17A: lariatin A variant, alanine substitution at position 17 (GSQLVYREWVGHSNVIAP; lactam N-8 (inferred); not fully specified; ends not checked; UniProt H7C8I3 27-44, looked up, variant K17A)”, for which the “Anti-mycobacterial activity compared with lariatin A (in words)” value is “weaker activity” and the Inhibition zone was 10.4 mm. In turn, “Lariatin A (GSQLVYREWVGHSNVIKP; lactam N-8 (inferred); ends not checked; UniProt H7C8I3 27-44, looked up) [18-residue lasso peptide from Rhodococcus jostii K01-B0171, macrolactam ring between Gly1 and Glu8, C-terminal tail threaded through ring]” returned an Inhibition zone of 21.8 mm.

With “P18A: lariatin A variant, alanine substitution at position 18 (GSQLVYREWVGHSNVIKA; lactam N-8 (inferred); not fully specified; ends not checked; UniProt H7C8I3 27-44, looked up, variant P18A)”, the “Anti-mycobacterial activity compared with lariatin A (in words)” value is given as “more potent activity than lariatin A” and the Inhibition zone is recorded as 29.6 mm. In turn, “S13A: lariatin A variant, alanine substitution at position 13 (GSQLVYREWVGHANVIKP; lactam N-8 (inferred); not fully specified; ends not checked; UniProt H7C8I3 27-44, looked up, variant S13A)” had an Inhibition zone of 19.8 mm. As for “V15A: lariatin A variant, alanine substitution at position 15 (GSQLVYREWVGHSNAIKP; lactam N-8 (inferred); not fully specified; ends not checked; UniProt H7C8I3 27-44, looked up, variant V15A)”, the Inhibition zone stood at 20.7 mm. Still for that read-out and setting: in the case of “Y6F: lariatin A variant, Tyr6 replaced with phenylalanine (GSQLVFREWVGHSNVIKP; lactam N-8 (inferred); ends not checked; UniProt H7C8I3 27-44, looked up, variant Y6F)” it was 30.7 mm.
